Measurements from the NIST ThermoML archive (doi:10.1016/j.tca.2004.11.001).

Experiment: molar heat capacity at constant pressure; xn = mol fraction of the nth substance listed
Details: 101.33 kPa, Liquid, x2 = 0

O [water] + CCCCCCOCCOCCOCCOCCOCCO
Details | molar heat capacity at constant pressure [J/K/mol]
283 K | 75.53
288 K | 75.41
298 K | 75.3
308 K | 75.28
318 K | 75.3
328 K | 75.35
338 K | 75.43
